Source: patent US20160278376A1 (priority 2013, published 2016)
Values after ≈ are worked out from the molar mass of the structure shown. Read-outs that look alike come from different tables or passages of the source.

Columns and labels:
[1] = system: E. coli Stratagene strain “Solopack”; experiment: Paper disc inhibition assay on E. coli lawn; format: cell-based; conditions: 20 μl drops without dilution (100% strength) on 6 mm discs; 24 hrs
Excerpt: FIG. 1. Effect of Carvacrol, Cinnamaldehyde and Geraniol against E. coli cells. Twenty microliter drops of three chemicals (at 100% strength) were placed on paper assay discs on top of E. coli lawn. Control disc included a solution of 70% ethanol without any added essential oil. Dotted line circles indicate zone of inhibition. Photo taken at 24 hrs after plating.
The essential oils cinnamadehyde (Aldrich, W228605; ≧98% purity), carvacrol (Aldrich, W224502; ≧98% purity) and geraniol (Aldrich, 163333; 98% purity) were purchased Sigma-Aldrich (St. Louis, Mo.). A single colony of E. coli Stratagene strain “Solopack” was inoculated in 5 ml of Luria Broth (LB) liquid medium with shaking at 37° C. overnight. Two hundred μl of the E. coli overnight cultures were placed on an LB agar plate, and spread evenly with glass beads. The bacterial culture was allowed to absorb into the LB medium. Within 30 min after absorption, 20 μl drops of the three essential oils (cinnamaldehyde, carvacrol or geraniol) were separately placed without dilution on 6 mm discs (Whatman, Cat No. 2017-006; GE healthcare Life Science) and the treated disks were placed on top of the plates with E. coli. The plates were then incubated for 24 hrs. Photos were taken at 24 hrs after plating (see FIG. 1). Experiments were repeated, with the same results.

[2] = system: L. crescens strain BT-1 (Lcr); format: cell-based, Liberibacter crescens; conditions: 5 days
[3] = system: Swingle rootstocks and sweet orange; experiment: Phytotoxicity of foliar spray / leaf painting on citrus; format: in vivo
Excerpt: To test the phytoxicity of cinnamaldehyde or carvacrol in 70% ethanol, and 70% ethanol alone on citrus plants, we applied 1% (w/v) and 10% (w/v) cinnamaldehyde or carvacrol (each dissolved in 70% ethanol) on Swingle rootstocks (˜6 inches to 1 foot tall) by spraying to the point of run-off of the spray and also sweet orange (˜3 foot tall) by painting one or both sides of a portion of the leaf surface. We also applied 70% ethanol as control in these two methods.

Swingle rootstocks = experiment: Phytotoxicity of soil drench on citrus; format: in vivo
Excerpt: To further test the phytoxicity of cinnamaldehyde or carvacrol in 70% ethanol, and 70% ethanol alone on citrus plants, we applied 1% and 10% cinnamaldehyde or carvacrol (each dissolved in 70% ethanol) on Swingle rootstocks (˜6 inches to 1 foot tall) by adding sufficient liquid to soil of potted citrus to the point of run-off of the drench. We also applied 70% ethanol as control in these two methods.

Lcr = experiment: microbe, parasite or virus in culture; format: cell-based; conditions: Liberibacter crescens, read-out: Minimum Inhibitory Concentration (MIC)
Las [4] = format: in vivo; conditions: 1% (w/v) in 70% ethanol, foliar spray to run off; 1-2 weeks later, remained positive for at least several months; positive = Ct ≤ 35
Las [5] = format: in vivo
Las [6] = format: in vivo; conditions: 1.5% (w/v) in 100% DMSO
[7] = system: Hamlin sweet orange trees grafted onto Swingle rootstock; conditions: in vivo
[8] = 20 μl at 2 mg/ml in 70% ethanol on 6 mm discs
[9] = 1% (w/v) in 70% ethanol, sprayed to run-off on Swingle rootstocks, painted on sweet orange leaves, carvacrol effect observable by 24 hours
[10] = 1% in 70% ethanol (carvacrol: 8 mg/ml (1%), observable by 60 hrs), potted Swingle rootstocks
[11] = 10% w/v in 70% ethanol, chlorosis and leaf curling, but not defoliation

Compound | inhibition of the growth of E. coli (zone of inhibition) [1] | inhibition of the growth of Lcr (zone of inhibition) [2, 8] | phytotoxicity to citrus, foliar application [3, 9] | phytotoxicity to citrus, soil drench (Swingle rootstocks; [10]) | level down to which inhibitory to Lcr in the disc tests ([2]; two-fold serial dilutions in 70% ethanol on 6 mm discs) [mg/mL] | MIC (Lcr) [µg/mL] | phytotoxicity to citrus, foliar application [3, 11] | phytotoxicity to citrus, soil drench (Swingle rootstocks; [11]) | qPCR test for Las after treatment (Las [4]) | PCR test for Las (Las [5]; 0.3% in 50% DMSO, foliar spray to run off) | PCR test for Las in new shoots (Las [5]; 1.5% in 50% DMSO, foliar spray to run off, first tests about 3 weeks after defoliation) | outcome of weekly qPCR tests for Las over nine months (Las [5]; 1.5% in 50% DMSO, foliar spray, no detectable Liberibacter infection and no citrus greening symptoms) | PCR test for Las in new shoots (Las [6]; 2 x 20 ml trunk injection, first tests about 3 weeks after defoliation) | weekly PCR tests for Las over 9 months (Las [6]; trunk injection, thus cured) | effect on foliage of treated trees [7] | inhibition of the growth of Lcr (zone of inhibition) ([2]; 20 μl of two-fold dilutions 2 mg/ml to 0.125 mg/ml in 70% ethanol on 6 mm discs)
Cc1ccc(C(C)C)cc1O [carvacrol, reference compound] | more inhibitory than cinnamaldehyde | slight inhibition | highly phytotoxic | highly phytotoxic |  |  |  |  |  |  |  |  |  |  |  | 
O=C/C=C/c1ccccc1 [cinnamaldehyde] | more inhibitory than geraniol | strong inhibition | not at all phytotoxic | not at all phytotoxic | 1 | 5 (≈ 37.8 µM) | moderately phytotoxic | moderately phytotoxic | qPCR positive | remained infected | completely Las negative | cured | completely negative | remained completely PCR negative | completely defoliated | 
CC(C)=CCC/C(C)=C/CO [geraniol, reference compound] | inhibitory |  |  |  |  |  |  |  |  |  |  |  |  |  |  | not inhibitory
